In US20240262848A1, “HETEROCYCLIC COMPOUNDS, COMPOSITIONS THEREOF, AND METHODS OF TREATMENT THEREWITH” (BeiGene, Ltd., priority 2022, published 2024):

Experiments:
[1] = biological target: GST-tagged GDP-loaded KRAS G12D (amin acids 1-188) (Homo sapiens, UniProt P01116, G12D); experiment: KRAS G12D probe displacement assay (TR-FRET); assay type: binding; conditions: Table 5; KRAS G12D 0.5 nM, biotinylated probe 2 4 nM
Description: Plates are incubated at 24° C. for 1 hr.

[2] = test system: pERK1/2(THR202/TYR204) level in AsPC-1 cell line; experiment: KRAS G12D pERK assay in AsPC-1 cells (HTRF); assay type: cell-based
Description: AsPC-1 cell line was used in this study. Cells were maintained in RPMI-1640 supplemented with 10% fetal bovine serum (Thermo Fisher), 50 units/ml, penicillin and streptomycin (Thermo Fisher) and kept at 37° C. in a humidified atmosphere of 5% CO2 in air. Cells were reinstated from frozen stocks that were laid down within 30 passages from the original cells purchased. 30000 cells per well were seeded into a 96-well plate and incubated overnight. Cells were treated with a 10-point dilution series. The final compound concentration is from 0 to 10 μM. After 2 h compound treatment, cells were lysed, and the pERK1/2(THR202/TYR204) level in the cell lysates was detected by HTRF kit (Cisbio). In brief, a total of 16 μL of cell lysate from each well of a 96-well plate was transferred to a 384-well white assay plate. Lysate from each well was incubated with 2 μL of Eu3+-cryptate (donor) labeled anti-phospho-ERK1/2 and 2 μL of D2 (acceptor) labeled anti-phospho-ERK1/2 antibodies (Cisbio) overnight in dark at room temperature. When the donor and acceptor are in close proximity, excitation of the donor with laser triggers a Fluorescence Resonance Energy Transfer (FRET) towards the acceptor, which in turn fluoresces at 655 nm wavelength. FRET signals were measured using a PHERAstar FSX reader (BMG Labtech). IC50 determination was performed by fitting the curve of percent inhibition versus the log of the inhibitor concentration using Dotmatics.

[3] = biological target: GST-tagged GDP-loaded KRAS G12V (amino acids 1-169) (Homo sapiens, UniProt P01116, G12V); experiment: KRAS G12V probe displacement assay (TR-FRET); assay type: binding; conditions: Table 4; KRAS G12V 2 nM, biotinylated probe 2 2.5 nM
Chain of GST-tagged GDP-loaded KRAS G12V (amino acids 1-169) (P01116 1-169 isoform P01116-2 G12V): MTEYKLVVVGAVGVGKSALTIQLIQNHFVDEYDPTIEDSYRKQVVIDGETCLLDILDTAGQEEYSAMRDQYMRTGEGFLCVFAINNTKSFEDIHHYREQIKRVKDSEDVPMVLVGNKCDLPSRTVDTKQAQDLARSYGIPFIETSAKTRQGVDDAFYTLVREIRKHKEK
Description: Plates are incubated at 24 °C for 1 hr. […] After 1 hr incubation at 24° C.

[4] = test system: pERK1/2(THR202/TYR204) level in SW620 cell line; experiment: KRAS G12V pERK assay in SW620 cells (HTRF); assay type: cell-based
Procedure, shortened: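 SW620 cells were treated for 2 h with a 10-point dilution series (final 0–10 μM) after overnight seeding. Lysates were then incubated overnight at room temperature with Eu3+-cryptate and acceptor anti-phospho-ERK1/2 antibodies, and HTRF was read at 655 nm. IC50 was fitted from percent inhibition versus log concentration.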

[5] = Homo sapiens, ASPC1, Table 5, 2 h compound treatment
[6] = Homo sapiens, SW-620, Table 4, 2 hrs compound treatment

Chain of GST-tagged GDP-loaded KRAS G12D (amin acids 1-188) (P01116 1-188 isoform P01116-2 G12D): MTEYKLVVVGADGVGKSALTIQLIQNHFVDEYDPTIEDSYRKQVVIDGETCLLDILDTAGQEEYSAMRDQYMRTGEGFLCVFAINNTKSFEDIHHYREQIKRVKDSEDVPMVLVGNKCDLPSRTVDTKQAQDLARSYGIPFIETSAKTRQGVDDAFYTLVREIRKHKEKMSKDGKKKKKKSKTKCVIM

SMILES	IC50 [1] [nM]	IC50 ([2]; Table 5, 2 h compound treatment) [nM]	IC50 [3] [nM]	IC50 ([4]; Table 4, 2 hrs compound treatment) [nM]	IC50 [2, 5] [nM]	IC50 [4, 6] [nM]
CN1c2nc(OC[C@@]34CCCN3C[C@H](F)C4)nc3c(F)c(-c4cc(N)cc(Cl)c4C(F)(F)F)nc(c23)OCCC12COC2 [Example 30, 3-chloro-5-(4-fluoro-2-(((2R,7aS)-2-fluorotetrahydro-1H-pyrrolizin-7a(5H)-yl)methoxy)-11-methyl-8,9-dihydro-11H-7-oxa-1,3,6,11-tetraazaspiro[cycloocta[de]naphthalene-10,3′-oxetan]-1(11a), 2,3a, 3a^1(6a), 5-pentaen-5-yl)-4-(trifluoromethyl)aniline]	0.31	11	0.63	13		
CN1c2nc(OC[C@@]34CCCN3C[C@H](F)C4)nc3c(F)c(-c4cc(N)cc(Cl)c4C(F)(F)F)nc(c23)O[C@@H]2CCOC[C@H]21 [Example 51, 3-chloro-5-((7aR,11aR)-4-fluoro-2-(((2R,7aS)-2-fluorotetrahydro-1H-pyrrolizin-7a(5H)-yl)methoxy)-12-methyl-7a, 8,11a, 12-tetrahydro-9H, 11H-7,10-dioxa-1,3,6,12-tetraazapleiaden-5-yl)-4-(trifluoromethyl)aniline]	0.28		0.5		30	9.3
CN1c2nc(OC[C@@]34CCCN3C[C@H](F)C4)nc3c(F)c(-c4cc(N)cc(Cl)c4C(F)(F)F)nc(c23)OC[C@@H]2COC[C@H]21 (single isomer, unassigned) [Example 68 Isomer 2]	0.14		0.51		6.9	1.4
Cc1cc(N)cc(-c2nc3c4c(nc(OC[C@@]56CCCN5C[C@H](F)C6)nc4c2F)N(C)[C@@H]2COCC[C@H]2O3)c1C(F)(F)F [Example 61, 3-((7aR,11aR)-4-fluoro-2-(((2R,7aS)-2-fluorotetrahydro-1H-pyrrolizin-7a(5H)-yl)methoxy)-12-methyl-7a, 8,11a, 12-tetrahydro-9H, 11H-7,10-dioxa-1,3,6,12-tetraazapleiaden-5-yl)-5-methyl-4-(trifluoromethyl)aniline]	0.57		0.8		23	22
C=C1CN2CCC[C@@]2(COc2nc3c4c(nc(-c5cc(N)cc(Cl)c5C(F)(F)F)c(F)c4n2)O[C@H]2COCC[C@@H]2N3C)C1 [Example 62, 3-chloro-5-((7aR,11aS)-4-fluoro-12-methyl-2-(((S)-2-methylenetetrahydro-1H-pyrrolizin-7a(5H)-yl)methoxy)-7a, 8,10,11,11a, 12-hexahydro-7,9-dioxa-1,3,6,12-tetraazapleiaden-5-yl)-4-(trifluoromethyl)aniline]	0.23		0.25		12	5.5
C[C@@H]1C[C@H](C)Oc2nc(-c3cc(N)cc(Cl)c3C(F)(F)F)c(F)c3nc(OC[C@@]45CCCN4C[C@H](F)C5)nc(c23)N1C [Example 34, 3-chloro-5-((8S,10R)-4-fluoro-2-(((2R,7aS)-2-fluorotetrahydro-1H-pyrrolizin-7a(5H)-yl)methoxy)-8,10,11-trimethyl-8,9,10,11-tetrahydro-7-oxa-1,3,6,11-tetraazacycloocta[de]naphthalen-5-yl)-4-(trifluoromethyl)aniline]	0.59		0.59		25	13
CCN1c2nc(OC[C@@]34CCCN3C[C@H](F)C4)nc3c(F)c(-c4cc(N)cc(Cl)c4C(F)(F)F)nc(c23)OCCC12COC2 [Example 35, 3-chloro-5-(11-ethyl-4-fluoro-2-(((2R,7aS)-2-fluorotetrahydro-1H-pyrrolizin-7a(5H)-yl)methoxy)-8,9-dihydro-11H-7-oxa-1,3,6,11-tetraazaspiro[cycloocta[de]naphthalene-10,3′-oxetan]-1(11a), 2,3a, 3a^1(6a), 5-pentaen-5-yl)-4-(trifluoromethyl)aniline]	0.33		0.47		22	26
CN1CCC[C@@]2(COc3nc4c5c(nc(-c6cc(N)cc(Cl)c6C(F)(F)F)c(F)c5n3)O[C@H]3COCC[C@@H]3N4C)CCC[C@@H]12 [Example 64, 3-chloro-5-((7aR,11aS)-4-fluoro-12-methyl-2-(((4aS,7aR)-1-methyloctahydro-4aH-cyclopenta[b]pyridin-4a-yl)methoxy)-7a, 8,10,11,11a, 12-hexahydro-7,9-dioxa-1,3,6,12-tetraazapleiaden-5-yl)-4-(trifluoromethyl)aniline]	0.1		0.25		7.9	6.4
CN1c2nc(OC[C@@]34CCCN3C[C@H](F)C4)nc3c(F)c(-c4cc(N)cc(Cl)c4C(F)(F)F)nc(c23)OCCC12CC2 [Example 31, 3-chloro-5-(4-fluoro-2-(((2R,7aS)-2-fluorotetrahydro-1H-pyrrolizin-7a(5H)-yl)methoxy)-11-methyl-8,9-dihydro-11H-7-oxa-1,3,6,11-tetraazaspiro[cycloocta[de]naphthalene-10,1′-cyclopropan]-1(11a), 2,3a, 4,6-pentaen-5-yl)-4 (trifluoromethyl)aniline]	0.43		0.51		40	32
CN1CCCOc2cc(-c3ccc(F)c4sc(N)c(C#N)c34)c(F)c3nc(OC[C@@]45CCCN4C[C@H](F)C5)nc1c23 [Example 2, 2-amino-7-fluoro-4-(11-fluoro-2-(((2R,7aS)-2-fluorotetrahydro-1H-pyrrolizin-7a(5H)-yl)methoxy)-4-methyl-4.5,6,7-tetrahydro-[1,5]oxazocino[4,3,2-de]quinazolin-10-yl)benzo[b]thiophene-3-carbonitrile]	6.2		3.6		594	255
C#Cc1c(F)ccc2cc(O)cc(-c3nc4c5c(nc(OC[C@@]67CCCN6C[C@H](F)C7)nc5c3F)N(C)CCCO4)c12 [Example 10, 5-ethynyl-6-fluoro-4-(4-fluoro-2-(((2R,7aS)-2-fluorotetrahydro-1H-pyrrolizin-7a(5H)-yl)methoxy)-11-methyl-8,9,10,11-tetrahydro-7-oxa-1,3,6,11-tetraazacycloocta[de]naphthalen-5-yl)naphthalen-2-ol]	1.1		1.4		123	103
CN1c2nc(OC[C@@]34CCCN3C[C@H](F)C4)nc3c(F)c(-c4cc(N)cc(Cl)c4C(F)(F)F)nc(c23)O[C@H]2COCC[C@@H]21 [Example 49, 3-chloro-5-((7aR,11aS)-4-fluoro-2-(((2R,7aS)-2-fluorotetrahydro-1H-pyrrolizin-7a(5H)-yl)methoxy)-12-methyl-7a, 8,10,11,11a, 12-hexahydro-7,9-dioxa-1,3,6,12-tetraazapleiaden-5-yl)-4-(trifluoromethyl)aniline]	0.27		0.54		7.6	8.4
Cc1cc(N)cc(-c2nc3c4c(nc(OC[C@]56CCC[C@H]5N(C)CCC6)nc4c2F)N(C)[C@H]2CCOC[C@@H]2O3)c1C(F)(F)F [Example 65, 3-((7aR,11aS)-4-fluoro-12-methyl-2-(((4aS,7aR)-1-methyloctahydro-4aH-cyclopenta[b]pyridin-4a-yl)methoxy)-7a, 8,10,11,11a, 12-hexahydro-7,9-dioxa-1,3,6,12-tetraazapleiaden-5-yl)-5-methyl-4-(trifluoromethyl)aniline]	0.27		0.47		17	8.9
